# Assay results from PMC4965013, “Open Source Drug Discovery with the Malaria Box Compound Collection for Neglected Diseases and Beyond” (PLoS Pathogens, 2016).
# Key:
# [1] = system: P. falciparum 3D7 trophozoites; test: Metabolomic fingerprint profiling LC-MS; type: cell-based, Plasmodium falciparum; design: UDP-D-glucose / ADP-D-glucose: unit not given here; conditions: for Acetyllysine / N-acetyl-L-ornithine / N-carbamoyl-L-aspartate / NADPH / dAMP / dCMP / dTDP / dTMP / dTTP / dihydroorotate / orotate / DLH / DLS/SDL/SID / PD / PEE / PVNF / 3-phosphoglycerate / ADP-D-glucose / ATP / CDP / D-sedoheptulose-1/7-phosphate / FAD / GMP / NAD+ / NADP+ / Octoluse Bisphosphate / Pyroglutamic acid / UDP-D-glucose / UDP-D-glucuronate / UDP-N-acetyl-glucosamine / UDP / UMP / UTP / a-ketoglutarate / citrate/isocitrate / cytidine / dATP / dGMP/AMP / fumarate / glucose-1/6-phosphate / glycerate / guanine / guanosine / hypoxanthine / indole / inosine / nicotinate / ornithine / phosphoenolpyruvate / pyruvate / ribose-phosphate / sarcosine/alanine / sn-glycerol-3-phosphate / succinate/methylmalonic acid / uridine / xanthosine: S2 Table Metabolomics; for Acetyllysine: metabolite Acetyllysine; for N-acetyl-L-ornithine: metabolite N-acetyl-L-ornithine; for N-carbamoyl-L-aspartate: metabolite N-carbamoyl-L-aspartate; for NADPH: metabolite NADPH; for dAMP: metabolite dAMP; for dCMP: metabolite dCMP; for dTDP: metabolite dTDP; for dTMP: metabolite dTMP; for dTTP: metabolite dTTP; for dihydroorotate: metabolite dihydroorotate; for orotate: metabolite orotate; for DLH: peptide DLH; for DLS/SDL/SID: peptide DLS/SDL/SID; for PD: peptide PD; for PEE: peptide PEE; for PVNF: peptide PVNF; for 3-phosphoglycerate: metabolite 3-phosphoglycerate; for ADP-D-glucose: metabolite ADP-D-glucose; for ATP: metabolite ATP; for CDP: metabolite CDP; for CDP / D-sedoheptulose-1/7-phosphate / GMP / Octoluse Bisphosphate / UDP / UMP / UTP / citrate/isocitrate / dGMP/AMP / fumarate / glucose-1/6-phosphate / glycerate / guanine / guanosine / inosine / pyruvate / sarcosine/alanine / succinate/methylmalonic acid / uridine / xanthosine: change in metabolite level after compound treatment; for D-sedoheptulose-1/7-phosphate: metabolite D-sedoheptulose-1/7-phosphate; for FAD: metabolite FAD; for GMP: metabolite GMP; for NAD+: metabolite NAD+; for NADP+: metabolite NADP+; for Octoluse Bisphosphate: metabolite Octoluse Bisphosphate; for Pyroglutamic acid: metabolite Pyroglutamic acid; for UDP-D-glucose: metabolite UDP-D-glucose; for UDP-D-glucuronate: metabolite UDP-D-glucuronate; for UDP-N-acetyl-glucosamine: metabolite UDP-N-acetyl-glucosamine; for UDP: metabolite UDP; for UMP: metabolite UMP; for UTP: metabolite UTP; for a-ketoglutarate: metabolite a-ketoglutarate; for citrate/isocitrate: metabolite citrate/isocitrate; for cytidine: metabolite cytidine; for dATP: metabolite dATP; for dGMP/AMP: metabolite dGMP/AMP; for fumarate: metabolite fumarate; for glucose-1/6-phosphate: metabolite glucose-1/6-phosphate; for glycerate: metabolite glycerate; for guanine: metabolite guanine; for guanosine: metabolite guanosine; for hypoxanthine: metabolite hypoxanthine; for indole: metabolite indole; for inosine: metabolite inosine; for 2_3-Diphosphoglyceric acid / 4-phosphopantothenate / 6-phospho-D-gluconate / FMN / IMP / Pyrophosphate / Sedoheptoluse bisphosphate / cyclic-AMP / glutathione disulfide / lactate / myo-inositol: metabolite level change after treatment; for nicotinate: metabolite nicotinate; for ornithine: metabolite ornithine; for phosphoenolpyruvate: metabolite phosphoenolpyruvate; for pyruvate: metabolite pyruvate; for ribose-phosphate: metabolite ribose-phosphate; for sarcosine/alanine: metabolite sarcosine/alanine; for sn-glycerol-3-phosphate: metabolite sn-glycerol-3-phosphate; for succinate/methylmalonic acid: metabolite succinate/methylmalonic acid; for uridine: metabolite uridine; for xanthosine: metabolite xanthosine
# P. falciparum = test: EC50 listed in S2 Table Metabolomics (used to set the concentration tested); type: cell-based; conditions: Plasmodium falciparum; EC50 used for Factor_XEC50 in metabolomics; read-out: EC50_nM
smiles,measurement,setting,value
COc1ccc(C2=C(c3ccc(OC)cc3)C3(c4ccccc4)C(=O)C2(c2ccccc2)C2C(=O)N(c4ccc(C)cc4)C(=O)C23)cc1 (stereo not drawn) [MMV666101],Acetyllysine,[1],-0.1129
same,N-acetyl-L-ornithine,[1],0.1609
same,N-carbamoyl-L-aspartate,[1],-0.002224
same,NADPH,[1],-0.9507
same,dAMP,[1],-0.2629
same,dCMP,[1],0.3804
same,dTDP,[1],0.03996
same,dTMP,[1],0.002701
same,dTTP,[1],0.2425
same,dihydroorotate,[1],0.3476
same,orotate,[1],-0.884
same,DLH,[1],0.3443
same,DLS/SDL/SID,[1],0.3548
same,PD,[1],0.01018
same,PEE,[1],0.2697
same,PVNF,[1],0.3279
same,3-phosphoglycerate,[1],-0.07386
same,ADP-D-glucose,[1],0.1248
same,ATP,[1],0.5165
same,CDP,[1],0.04064
same,D-sedoheptulose-1/7-phosphate,[1],0.08624
same,FAD,[1],0.1013
same,GMP,[1],0.6118
same,NAD+,[1],-0.01164
same,NADP+,[1],0.3941
same,Octoluse Bisphosphate,[1],0.2807
same,Pyroglutamic acid,[1],0.2222
same,UDP-D-glucose,[1],-0.02174
same,UDP-D-glucuronate,[1],0.06413
same,UDP-N-acetyl-glucosamine,[1],0.01073
same,UDP,[1],0.07085
same,UMP,[1],0.1142
same,UTP,[1],0.03866
same,a-ketoglutarate,[1],-0.8357
same,citrate/isocitrate,[1],-1.04
same,cytidine,[1],0.3993
same,dATP,[1],-0.09007
same,dGMP/AMP,[1],-0.1266
same,fumarate,[1],-0.05622
same,glucose-1/6-phosphate,[1],0.03368
same,glycerate,[1],-0.6868
same,guanine,[1],-0.559
same,guanosine,[1],-0.9392
same,hypoxanthine,[1],-0.6138
same,indole,[1],-0.8533
same,inosine,[1],-0.8697
same,2_3-Diphosphoglyceric acid,[1],0.4338
same,4-phosphopantothenate,[1],-0.011
same,6-phospho-D-gluconate,[1],0.058
same,FMN,[1],0.02064
same,IMP,[1],-0.3616
same,Pyrophosphate,[1],0.3662
same,Sedoheptoluse bisphosphate,[1],0.08206
same,cyclic-AMP,[1],-0.009901
same,glutathione disulfide,[1],0.01065
same,lactate,[1],-0.9335
same,myo-inositol,[1],-1.462
same,nicotinate,[1],-1.016
same,ornithine,[1],-0.4187
same,phosphoenolpyruvate,[1],0.02347
same,pyruvate,[1],-0.8543
same,ribose-phosphate,[1],-0.007312
same,sarcosine/alanine,[1],0.06192
same,sn-glycerol-3-phosphate,[1],-0.02979
same,succinate/methylmalonic acid,[1],-0.01842
same,uridine,[1],-0.9813
same,xanthosine,[1],-0.2752
same,EC50,P. falciparum,148 nM
COc1ccc(NC(=O)C2c3ccccc3C(=O)N(CC(C)C)C2c2cccs2)cc1 (stereo not drawn) [MMV000662],Acetyllysine,[1],-4.572
same,N-acetyl-L-ornithine,[1],-3.381
same,N-carbamoyl-L-aspartate,[1],-2.466
same,NADPH,[1],2.406
same,dAMP,[1],2.2996
same,dCMP,[1],1.058
same,dTDP,[1],1.444
same,dTMP,[1],3.186
same,dTTP,[1],1.443
same,dihydroorotate,[1],-3.591
same,orotate,[1],-0.05867
same,DLH,[1],-6.2862
same,DLS/SDL/SID,[1],-4.745
same,PD,[1],-2.987
same,PEE,[1],-3.507
same,PVNF,[1],-6.642
same,3-phosphoglycerate,[1],0.247
same,ADP-D-glucose,[1],-0.1909
same,ATP,[1],-1.375
same,CDP,[1],-0.7124
same,D-sedoheptulose-1/7-phosphate,[1],-1.119
same,FAD,[1],-1.511
same,GMP,[1],-1.853
same,NAD+,[1],-0.4043
same,NADP+,[1],-0.01609
same,Octoluse Bisphosphate,[1],-2.194
same,Pyroglutamic acid,[1],0.3441
same,UDP-D-glucose,[1],-0.06213
same,UDP-D-glucuronate,[1],-0.01201
same,UDP-N-acetyl-glucosamine,[1],0.08846
same,UDP,[1],-1.277
same,UMP,[1],-0.622
same,UTP,[1],-1.315
same,a-ketoglutarate,[1],0.4405
same,citrate/isocitrate,[1],0.05797
same,cytidine,[1],0.7559
same,dATP,[1],0.06895
same,dGMP/AMP,[1],-0.6193
same,fumarate,[1],-0.1354
same,glucose-1/6-phosphate,[1],-1.428
same,glycerate,[1],-0.4765
same,guanine,[1],0.7318
same,guanosine,[1],1.459
same,hypoxanthine,[1],0.3686
same,indole,[1],0.3717
same,inosine,[1],0.5573
same,2_3-Diphosphoglyceric acid,[1],-1.11
same,4-phosphopantothenate,[1],-0.6744
same,6-phospho-D-gluconate,[1],-0.3651
same,FMN,[1],0.04988
same,IMP,[1],-0.0547
same,Pyrophosphate,[1],-1.578
same,Sedoheptoluse bisphosphate,[1],-1.096
same,cyclic-AMP,[1],-0.7789
same,glutathione disulfide,[1],-0.5026
same,lactate,[1],-0.6017
same,myo-inositol,[1],-0.9859
same,nicotinate,[1],1.185
same,ornithine,[1],0.01334
same,phosphoenolpyruvate,[1],0.5172
same,pyruvate,[1],-1.672
same,ribose-phosphate,[1],-0.9727
same,sarcosine/alanine,[1],-1.6779
same,sn-glycerol-3-phosphate,[1],0.8186
same,succinate/methylmalonic acid,[1],0.3034
same,uridine,[1],1.71
same,xanthosine,[1],-1.3795
same,EC50,P. falciparum,36.7 nM
CCOC(=O)C1=C(c2ccccc2)N=c2sc(=Cc3cc(C)n(-c4ccc(F)cc4)c3C)c(=O)n2C1c1cccc(OC)c1OC (stereo not drawn) [MMV666601],Acetyllysine,[1],-0.456
same,N-acetyl-L-ornithine,[1],-0.1781
same,N-carbamoyl-L-aspartate,[1],0.03088
same,NADPH,[1],0.275
same,dAMP,[1],-0.2186
same,dCMP,[1],0.01598
same,dTDP,[1],-0.2912
same,dTMP,[1],-0.2825
same,dTTP,[1],-0.02615
same,dihydroorotate,[1],0.05127
same,orotate,[1],-0.2921
same,DLH,[1],-0.04885
same,DLS/SDL/SID,[1],-0.07047
same,PD,[1],-0.02012
same,PEE,[1],-0.1327
same,PVNF,[1],-0.1227
same,3-phosphoglycerate,[1],0.04151
same,ADP-D-glucose,[1],-0.1367
same,ATP,[1],0.1113
same,CDP,[1],-0.2732
same,D-sedoheptulose-1/7-phosphate,[1],-0.3701
same,FAD,[1],0.009316
same,GMP,[1],0.1751
same,NAD+,[1],0.04978
same,NADP+,[1],-0.07076
same,Octoluse Bisphosphate,[1],-0.0546
same,Pyroglutamic acid,[1],0.2145
same,UDP-D-glucose,[1],-0.01836
same,UDP-D-glucuronate,[1],-0.09865
same,UDP-N-acetyl-glucosamine,[1],-0.01529
same,UDP,[1],-0.3315
same,UMP,[1],0.1049
same,UTP,[1],0.1938
same,a-ketoglutarate,[1],0.0362
same,citrate/isocitrate,[1],0.4989
same,cytidine,[1],0.1663
same,dATP,[1],0.2724
same,dGMP/AMP,[1],-0.3927
same,fumarate,[1],-0.02339
same,glucose-1/6-phosphate,[1],-0.02704
same,glycerate,[1],0.006669
same,guanine,[1],-0.1817
same,guanosine,[1],-0.06753
same,hypoxanthine,[1],0.09643
same,indole,[1],0.007804
same,inosine,[1],0
same,2_3-Diphosphoglyceric acid,[1],-0.2012
same,4-phosphopantothenate,[1],-0.1061
same,6-phospho-D-gluconate,[1],0.004224
same,FMN,[1],-0.01347
same,IMP,[1],-0.1927
same,Pyrophosphate,[1],-0.04369
same,Sedoheptoluse bisphosphate,[1],-0.08738
same,cyclic-AMP,[1],0.1818
same,glutathione disulfide,[1],-0.01346
same,lactate,[1],-0.02544
same,myo-inositol,[1],-0.1142
same,nicotinate,[1],0.07511
same,ornithine,[1],-0.266
same,phosphoenolpyruvate,[1],-0.02402
same,pyruvate,[1],-0.028
same,ribose-phosphate,[1],0.1121
same,sarcosine/alanine,[1],-0.3168
same,sn-glycerol-3-phosphate,[1],-0.06233
same,succinate/methylmalonic acid,[1],0.1961
same,uridine,[1],-0.1775
same,xanthosine,[1],0.2404
same,EC50,P. falciparum,154 nM
